PMC9127750, “Structure-based design of CDC42 effector interaction inhibitors for the treatment of cancer” (Cell reports, 2022)
Where “and” joins values, the source holds several entries; their conditions need not be identical. Equal values may be shown once.

Tested on: WM3248 melanoma cells, 486 antibodies
Assay: Reverse phase protein arrays (RPPA);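 on CA9.R.C RPPA level: ratio of treated to vehicle (0 µM) normalized linear protein signal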;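 on CD171.M.V RPPA level: ratio of treated to vehicle (0 µM) normalized linear protein signal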
Type: cell-based, Human
Settings: 10 uM
Excerpt: Pellets were snap frozen in liquid nitrogen and shipped to MD Anderson Cancer Center core RPPA facility for RPPA analysis (Table S5). Three biological replicates for each sample were generated.
Nomenclatures on the RPPA heatmaps: name_of_antibody.species_of_antibody.status_of_antibody. V - antibody validated; C - validation of antibody in progress; Q - antibody nonspecific; E – under evaluation; antibodies raised in M - mouse, G - goat, R - rabbit, or T - rat.

## CN(C)c1cccc(Nc2cc(-c3ccccc3)nc(C3CCNCC3)n2)c1 [ARN22089, N1,N1-dimethyl-N3-(6-phenyl-2-(piperidin-4-yl)pyrimidin-4-yl)benzene-1,3-diamine]
Average of 3 replicates
  RPPA signal, antibody VEGFR.2_pY1175.R.C, Average: 1.049
  RPPA signal, antibody VHL.EPPK1.M.C, Average: 1.196
  RPPA signal, antibody VHL.R.C, Average: 1.035
  RPPA signal, antibody Vinculin.M.V, Average: 0.966
  RPPA signal, antibody WIPI1.R.C, Average: 1.121
  RPPA signal, antibody WIPI2.R.C, Average: 0.943
  RPPA signal, antibody WTAP.R.V, Average: 1.119
  RPPA signal, antibody Wee1.R.C, Average: 1.020
  RPPA signal, antibody Wee1_pS642.R.C, Average: 0.998
  RPPA signal, antibody XBP.1.G.C, Average: 1.065
  RPPA signal, antibody XIAP.R.C, Average: 1.012
  RPPA signal, antibody XPA.M.V, Average: 1.058
  RPPA signal, antibody XRCC1.R.C, Average: 1.060
  RPPA signal, antibody YAP_pS127.R.V, Average: 0.978
  RPPA signal, antibody YB1_pS102.R.V, Average: 0.958
  RPPA signal, antibody YES1.R.V, Average: 1.020
  RPPA signal, antibody YTHDF2.R.V, Average: 0.990
  RPPA signal, antibody YTHDF3.R.C, Average: 1.018
  RPPA signal, antibody ZAP.70.R.V, Average: 1.001
  RPPA signal, antibody ZEB1.R.V, Average: 1.024
Individual replicates
  RPPA signal, antibody TSC1.R.C: 0.828 and 0.939
  RPPA signal, antibody TTF1.R.V: 0.920 and 0.873 and 1.035
  RPPA signal, antibody TUFM.R.V: 1.384 and 1.533
  RPPA signal, antibody Tuberin.R.V: 1.063 and 0.958 and 0.778
  RPPA signal, antibody Tuberin_pT1462.R.V: 1.389 and 0.896
  RPPA signal, antibody Twist.M.C: 1.022 and 1.114
  RPPA signal, antibody Tyro3.R.V: 1.207 and 1.432 and 1.052
  RPPA signal, antibody U.Histone.H2B.R.C: 0.675 and 0.846 and 0.974
  RPPA signal, antibody UBAC1.R.V: 0.909 and 0.974 and 0.962
  RPPA signal, antibody UBQLN4.M.C: 1.002 and 0.908 and 1.014
  RPPA signal, antibody UGT1A.M.V: 1.078 and 1.131 and 1.024
  RPPA signal, antibody ULK1_pS757.R.C: 0.907 and 0.952
  RPPA signal, antibody UQCRC2.M.C: 0.984 and 1.001 and 0.779
  RPPA signal, antibody UVRAG.R.C: 0.941 and 0.945 and 1.016
  RPPA signal, antibody VASP.R.V: 0.853 and 0.873 and 0.935
  RPPA signal, antibody VAV1.R.C: 0.917 and 0.930 and 0.971
  RPPA signal, antibody VEGFR.2.R.V: 0.830 and 0.863 and 1.064
  RPPA signal, antibody VEGFR.2_pY1175.R.C: 1.135 and 1.035 and 0.978
  RPPA signal, antibody VHL.EPPK1.M.C: 1.361 and 1.047
  RPPA signal, antibody VHL.R.C: 1.048 and 1.060 and 0.997
  RPPA signal, antibody Vinculin.M.V: 0.834 and 1.032 and 1.034
  RPPA signal, antibody WIPI1.R.C: 1.084 and 1.260 and 1.018
  RPPA signal, antibody WIPI2.R.C: 1.004 and 0.919 and 0.906
  RPPA signal, antibody WTAP.R.V: 0.973 and 1.303 and 1.081
  RPPA signal, antibody Wee1.R.C: 0.837 and 1.193 and 1.031
  RPPA signal, antibody Wee1_pS642.R.C: 0.842 and 1.057
  RPPA signal, antibody XBP.1.G.C: 1.054 and 1.065 and 1.076
  RPPA signal, antibody XIAP.R.C: 0.980 and 0.995 and 1.063
  RPPA signal, antibody XPA.M.V: 0.998 and 1.083
  RPPA signal, antibody XPF.R.C: 1.061 and 1.058 and 1.015
  RPPA signal, antibody XRCC1.R.C: 1.098 and 1.017
  RPPA signal, antibody YAP.R.C: 1.046 and 1.136 and 1.017
  RPPA signal, antibody YAP_pS127.R.V: 0.857 and 1.020 and 1.056
  RPPA signal, antibody YB1_pS102.R.V: 0.792 and 0.995
  RPPA signal, antibody YES1.R.V: 0.963 and 1.023
  RPPA signal, antibody YTHDF2.R.V: 0.973 and 0.926
  RPPA signal, antibody YTHDF3.R.C: 1.046 and 1.052 and 0.954
  RPPA signal, antibody ZAP.70.R.V: 0.965 and 0.999
  RPPA signal, antibody ZEB1.R.V: 0.993 and 0.988
replicates
  C.Raf.R.C RPPA level: 1.022 and 0.897 and 0.901
  C.Raf_pS338.R.V RPPA level: 0.937 and 0.962
  CA9.R.C RPPA level: 0.963 and 0.920 and 1.058
  CD2.M.C RPPA level: 1.046 and 1.013
  CD4.R.V RPPA level: 0.841 and 0.982 and 0.984
  CD5.M.C RPPA level: 1.032 and 1.016
  CD20.R.C RPPA level: 0.915 and 1.113 and 1.048
  CD26.R.V RPPA level: 0.862 and 0.937 and 1.046
  CD29.M.V RPPA level: 1.013 and 0.983 and 1.052
  CD31.M.V RPPA level: 1.033 and 1.057 and 1.013
  CD38.R.C RPPA level: 0.895 and 0.963
  CD44.R.C RPPA level: 1.029 and 1.050
  CD45.M.V RPPA level: 1.006 and 1.019
  CD49b.M.V RPPA level: 1.003 and 0.999
  CD68.M.C RPPA level: 1.022 and 1.011
  CD74.M.V RPPA level: 0.984 and 1.053
  CD134.R.V RPPA level: 1.005 and 1.057 and 0.995
  CD171.M.V RPPA level: 0.591 and 0.987 and 1.115
  CDK1_pT14.R.C RPPA level: 1.201 and 0.649 and 0.946
  CDK9.R.V RPPA level: 1.078 and 0.919
  CDKN2A.R.C RPPA level: 1.006 and 1.160
  CDT1.R.V RPPA level: 0.973 and 1.157 and 1.014
